From patent US10323019B2, “Pyrazolylaminobenzimidazole derivatives as JAK inhibitors” (Eli Lilly and Company, priority 2016, dated 2019) come the findings set out here.

One may read the inhibition as the percentage by which the read-out fell short of the control. What is called IC50 is the midpoint of a concentration-inhibition curve. A lower IC50 goes with greater potency in that assay.

Where two headings read alike, the source gives them in different places.

For experiment [1], the target named is JAK1 (Rattus norvegicus, UniProt G3V9W2). The experiment is described as follows: Rat PK/PD assay: rat whole blood ex vivo JAK1 activity (pSTAT3). In kind it is in vivo. As to conditions: 30 mpk oral. The procedure:
Male Wistar rats, 265-285 grams (Charles River) were used for oral gavage dosing. Dose the animals (Oral gavage) at 1.82 mL/kg (0.5 mL per 275 grams). Formulate the compounds in 1% HEC vehicle containing 0.25% Tween 80 and 0.05% antifoam with 1.1 molar equivalent of methanesulfonic acid to form an in situ salt. Formulate compounds once per week, and store at 4° C. At various time points, obtain rat whole blood via tail vain bleeding in Multivette 600 μl EDTA blood collection tubes (cat#151671100PK100, Sarstedt Inc) and use for ex vivo JAK1 and JAK2 assay. Aliquot 100 ul of blood from each rat into a 96-well round bottom plate. Stimulate whole blood by recombinant IL-6 ([…], and recombinant mouse GM-CSF (cat#415-ML, lot#, R&D) for 12 min at rt. After cytokine stimulation, add whole blood into Lyse/fix (cat#558049, lot#, BD) in minitube rack; mix well 5×. Incubate 10 min at rt. Spin minitube rack at 600 g for 4 min. Aspirate with 12-channel manifold. Transfer contents of minitube rack to 96 well round-bottom plates. Spin down the cells at 3000 rpm for 1 min and discard the supernatant. Mix the cells in the well with 100 ul ice-cold MeOH and incubated on ice for 30 min. Add 150 ul PBS+2% FCS into each well and spin down at 3000 rpm, 2 min. Wash cells with 2× of 250 ul PBS+2% FCS. For cell surface and intracellular staining, mix all antibodies and add into each well and incubate 1 hr at rt in dark. The antibodies used for staining are as following: pSTAT3, Alexa Fluor 647 (cat#4324s, lot, Cell Signaling); pSTAT5, Alexa Fluor 488 (cat#3939s, lot#, Cell Signaling), anti-rat CD4, V450 (cat#561579, lot#. BD); anti-rat CD11b, Percp eFluor710 (cat#12-0110-82, lot#, eBioscience) After staining cells with Abs, wash the plates twice with PBS+2% FCS and finally re-suspend in the same 150 ul of solution. Assess cell viability by Viability Dye 780 (cat#65-0865-14, lot#, eBioscience). Perform the cytometry assay using FORTESSA.

Experiment [2] has as its system paw swelling in Lewis rats. The experiment in a line: Rat collagen-induced arthritis (CIA) model. It counts as in vivo. The method, then: Rat Collagen-Induced Arthritis (CIA) Model
This protocol uses Lewis rats (weight 150-175 grams) from Charles River. On day 0, anesthetize rats with Isoflurane. On day 1, immunize intradermally with collagen emulsion in two sites on the lower lumbar region, above the base of the tail. Dose volume is a minimum of 0.4 mL per injection site. On day 8, anesthetize rats with Isoflurane and immunize intradermally with collagen emulsion in two sites on the lower lumbar region, above the base of the tail. Enroll rats into treatment groups on day 12, based on inflammation (redness and/or swelling) in their hind paws. Randomize animals for Treatment Phase based on ankle measurement values and body weight using block randomization allocation tool. Record ankle swelling on days 1, 8, and 11 and then three times per week following enrollment up to and including the day of necropsy. Dose compounds orally once a day starting on day 12 (after randomization) up to day 25. The compounds of Examples 6 and 7 were evaluated in the protocol essentially as described above.

Experiment [3] deals with JAK1 (Homo sapiens (Human), UniProt P23458). The experiment is described as follows: Human whole blood assay: pSTAT3 (JAK1) in lymphocytes, IL6 stimulated. In kind it is cell-based. As to conditions: IL6, pSTAT3 in CD4+ lymphocytes. The text has this:
Human Whole Blood Assays: Determination of pSTAT3 (JAK1) and pSTAT5 (JAK2) in Lymphocytes and Monocytes
Human whole blood (HWB) assays were developed and validated to determine the JAK1 and JAK2 selectivity of test compounds.
Dilute the test compounds, 10 points, (1:3) in DMSO 100% and a step down in PBS+0.1% BSA. Use Tofacitinib as a reference compound in each plate, as well as a maximum signal (stimulated wells) and a minimum signal (no stimulated wells) in order to normalize data. Obtain a pool of HWB from 4 different healthy donors. Plate the blood in a 96 well plate using a Tecan Evo 96w and incubate with test compounds for 1 h at RT. After this time of incubation, stimulate HWB with both IL6 (206-IL, R&D System) and GM-CSF (PHC2015, Life Technologies) for 15 more minutes. Add a viability dye (65-0865, eBiosicience) (1:1000) using a Tecan Evo 96w (5×mix).
The final concentrations in the assay are the following: 100 (μM for compounds, 50 μM for Tofacitinib, 0.1 μg/mL IL6, 0.038 μg/mL GM-CSF and 1% DMSO. Lyse and fix HWB using a Lyse/fix buffer (558049, Becton Dickinson) by adding 900 μL of lysis buffer using Tecan Evo 96w (mix 10× high speed). Incubate HWB in bath at 37° C. for 10 minutes. Centrifuge HWB at 500 G, 8 min and discard supernatant. Add cold MeOH using a Tecan Exo 96w in order to permeabilize cells. Incubate blood cells on ice during 30 min. After this, wash cells 2× using Staining buffer (554656, Becton Dickinson), spin at 3000 rpm, 2 min. discard supernatant, and add the following antibodies: Anti-Human CD4 PE, 1:100 (12-0048, eBioscience), Anti-Human CD33 eFluor® 450, 1:50 (48-0337, eBioscience), Phospho-STAT5 (Tyr694) (C71E5) Rabbit mAb, 1:100 (Alexa Fluor® 488 Conjugate) (3939, Cell Signaling) and Phospho-STAT3 (Tyr705) (D3A7) XP™ Rabbit mAb 1:200, (Alexa Fluor® 647 Conjugate) (4324, Cell Signaling). Incubate the antibodies for 1 h in dark at RT, then wash cells 2× and read on Cytometer Macsquant (Miltenyi Biotec). Gate the data on CD4+ (lymphocytes) and CD4Low CD33Hi (monocytes), to measure the fluorescence intensity from cells expressing pSTAT3 and pSTAT5, respectively. Analyze the data using FlowJo v 10 and then normalize the median of fluorescence versus maximum and minimum signal to determine the IC50s. Use Graph Pad Prism 5™ to represent the dose response curves.

Chain of JAK1 (Rattus norvegicus, UniProt G3V9W2) (G3V9W2 1-1153): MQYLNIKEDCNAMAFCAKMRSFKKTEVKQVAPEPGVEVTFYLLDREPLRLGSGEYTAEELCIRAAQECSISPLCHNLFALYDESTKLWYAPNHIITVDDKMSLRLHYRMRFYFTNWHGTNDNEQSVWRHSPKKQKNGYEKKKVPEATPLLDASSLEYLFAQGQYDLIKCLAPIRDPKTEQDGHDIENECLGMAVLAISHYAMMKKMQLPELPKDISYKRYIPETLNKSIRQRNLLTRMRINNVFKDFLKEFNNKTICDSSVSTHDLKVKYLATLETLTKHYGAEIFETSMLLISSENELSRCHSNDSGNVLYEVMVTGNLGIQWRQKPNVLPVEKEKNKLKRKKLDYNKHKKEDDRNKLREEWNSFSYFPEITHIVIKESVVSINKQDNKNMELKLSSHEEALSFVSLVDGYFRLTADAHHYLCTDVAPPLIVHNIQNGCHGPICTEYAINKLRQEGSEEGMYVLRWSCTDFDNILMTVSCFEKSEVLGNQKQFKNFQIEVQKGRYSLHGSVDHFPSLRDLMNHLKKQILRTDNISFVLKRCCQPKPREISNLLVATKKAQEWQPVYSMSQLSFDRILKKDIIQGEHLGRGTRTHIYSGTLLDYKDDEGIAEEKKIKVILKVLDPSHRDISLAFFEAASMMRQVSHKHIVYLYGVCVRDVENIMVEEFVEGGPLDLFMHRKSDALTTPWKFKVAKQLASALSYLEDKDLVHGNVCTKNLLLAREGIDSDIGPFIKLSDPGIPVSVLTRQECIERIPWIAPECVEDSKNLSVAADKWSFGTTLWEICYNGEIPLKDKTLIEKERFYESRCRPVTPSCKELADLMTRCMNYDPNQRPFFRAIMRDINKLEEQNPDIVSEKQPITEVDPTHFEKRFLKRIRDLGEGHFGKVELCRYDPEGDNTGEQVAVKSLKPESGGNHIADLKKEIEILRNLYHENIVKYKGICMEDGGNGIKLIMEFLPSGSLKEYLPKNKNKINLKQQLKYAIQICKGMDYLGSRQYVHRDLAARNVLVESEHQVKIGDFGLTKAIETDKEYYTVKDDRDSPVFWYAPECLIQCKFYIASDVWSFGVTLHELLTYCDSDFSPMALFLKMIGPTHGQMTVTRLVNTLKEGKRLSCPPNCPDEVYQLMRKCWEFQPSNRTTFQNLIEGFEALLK
Chain of JAK1 (Homo sapiens (Human), UniProt P23458) (P23458 whole entry): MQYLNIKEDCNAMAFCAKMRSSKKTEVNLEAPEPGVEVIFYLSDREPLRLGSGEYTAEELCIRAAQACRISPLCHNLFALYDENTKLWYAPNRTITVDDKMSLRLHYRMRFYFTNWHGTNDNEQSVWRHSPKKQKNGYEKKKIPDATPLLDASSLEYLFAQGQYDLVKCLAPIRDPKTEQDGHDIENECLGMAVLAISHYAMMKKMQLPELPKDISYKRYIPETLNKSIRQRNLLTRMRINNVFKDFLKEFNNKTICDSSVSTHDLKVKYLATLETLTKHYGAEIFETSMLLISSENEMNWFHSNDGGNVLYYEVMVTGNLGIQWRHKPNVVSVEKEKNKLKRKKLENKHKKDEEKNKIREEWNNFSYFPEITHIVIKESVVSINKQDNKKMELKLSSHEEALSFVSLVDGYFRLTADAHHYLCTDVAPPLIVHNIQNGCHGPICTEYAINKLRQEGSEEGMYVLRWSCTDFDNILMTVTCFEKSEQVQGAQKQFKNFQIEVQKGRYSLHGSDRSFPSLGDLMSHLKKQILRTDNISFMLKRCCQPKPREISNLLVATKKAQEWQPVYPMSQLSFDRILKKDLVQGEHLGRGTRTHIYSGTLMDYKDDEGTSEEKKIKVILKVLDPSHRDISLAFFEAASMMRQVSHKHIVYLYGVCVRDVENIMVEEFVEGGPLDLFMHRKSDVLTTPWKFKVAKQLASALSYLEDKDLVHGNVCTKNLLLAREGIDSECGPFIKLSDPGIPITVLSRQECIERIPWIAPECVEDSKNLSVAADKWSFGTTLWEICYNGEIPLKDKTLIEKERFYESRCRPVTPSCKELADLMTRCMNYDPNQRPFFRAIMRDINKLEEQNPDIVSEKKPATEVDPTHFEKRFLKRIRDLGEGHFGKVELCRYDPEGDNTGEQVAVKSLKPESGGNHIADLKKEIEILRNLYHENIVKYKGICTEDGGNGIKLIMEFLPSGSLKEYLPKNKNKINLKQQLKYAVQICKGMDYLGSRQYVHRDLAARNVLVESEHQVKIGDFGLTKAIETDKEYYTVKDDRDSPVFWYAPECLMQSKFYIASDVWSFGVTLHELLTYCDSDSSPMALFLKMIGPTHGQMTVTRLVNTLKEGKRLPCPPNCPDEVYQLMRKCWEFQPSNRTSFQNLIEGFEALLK

As for `COc1cc(Nc2cc(O[C@H]3CC[C@@H](NC[C@@H](O)C(F)(F)F)CC3)cc3c2ncn3C)nn1C` [Example 6, (2R)-1,1,1-Trifluoro-3-{[cis-4-({4-[(5-methoxy-1-methyl-1H-pyrazol-3-yl)amino]-1-methyl-1H-benzimidazol-6-yl}oxy)cyclohexyl]amino}propan-2-ol], the inhibition at 30 mg/kg is 83.5% in experiment [1] (2 hr post dosing, read-out: JAK1 inhibition 2 hr post dosing) and 75.4% in experiment [1] (7 hr post dosing, read-out: JAK1 inhibition 7 hr post dosing). In addition, the “Rat paw swelling % inhibition at 3 mpk” value in experiment [2] (3 mpk oral once a day day 12 to 25, naïve rat as 100% inhibition) turned out to be 12%. For the same compound, in experiment [2] (10 mpk oral once a day day 12 to 25, naïve rat as 100% inhibition), the “Rat paw swelling % inhibition at 10 mpk” value is 47%. For the same compound, in experiment [2] (30 mpk oral once a day day 12 to 25, naïve rat as 100% inhibition), the “Rat paw swelling % inhibition at 30 mpk” value came to 79%. Half-maximal inhibition in experiment [3] (IC50) was put at 3.65 ± 0.79 µM.
